Measurements taken from patent US12331035B2, “Bicyclic compound and use thereof” (SK BIOPHARMACEUTICALS CO., LTD., priority 2019, dated 2025).
Counter-ions that a name gives are not always drawn.

What follows are compounds tested against T1, PRMT5-MEP50 enzyme complex (Homo sapiens, UniProt O14744) (assay: In vitro PRMT5 enzyme activity assay (methylation of histone H4 arginine H4R3, ELISA absorbance at 450 nm)). Conditions: S-adenosylmethionine, histone H4 peptide, 2 hours at room temperature, 8 points 10 μM to 0.128 nM.
T1 construct: purchased BPS Bioscience (USA) 51045
Format: biochemical
In short: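 Human PRMT5-MEP50 (5 μg/mL working stock) with 2 μM SAM stock on histone H4 (1-20) peptide-coated plates, compound 8-point 1:5 series from 10 μM, 2 h at room temperature. H4R3 methylation detected by antibody/HRP ELISA, absorbance 450 nm; IC50 calculated.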

T1 sequence (O14744 2-637 limits assumed): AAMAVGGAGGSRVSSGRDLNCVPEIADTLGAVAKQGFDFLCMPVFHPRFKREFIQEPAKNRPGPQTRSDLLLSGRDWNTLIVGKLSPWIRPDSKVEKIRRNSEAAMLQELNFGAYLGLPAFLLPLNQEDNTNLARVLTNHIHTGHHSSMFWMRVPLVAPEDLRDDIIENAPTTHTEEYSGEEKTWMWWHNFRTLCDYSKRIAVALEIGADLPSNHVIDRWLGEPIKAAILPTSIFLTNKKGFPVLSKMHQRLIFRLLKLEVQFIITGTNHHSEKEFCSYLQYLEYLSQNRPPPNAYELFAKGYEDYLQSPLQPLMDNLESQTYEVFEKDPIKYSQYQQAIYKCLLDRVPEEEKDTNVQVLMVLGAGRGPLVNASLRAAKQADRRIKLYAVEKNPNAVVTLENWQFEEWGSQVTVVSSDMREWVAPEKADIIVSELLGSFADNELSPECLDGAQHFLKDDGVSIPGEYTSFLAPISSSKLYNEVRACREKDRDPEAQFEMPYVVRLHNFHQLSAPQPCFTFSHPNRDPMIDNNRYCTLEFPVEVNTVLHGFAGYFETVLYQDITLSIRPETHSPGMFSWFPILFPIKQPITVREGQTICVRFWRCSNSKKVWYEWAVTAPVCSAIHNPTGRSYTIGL
T1 sequence (Q9BQA1 2-342 partner limits assumed): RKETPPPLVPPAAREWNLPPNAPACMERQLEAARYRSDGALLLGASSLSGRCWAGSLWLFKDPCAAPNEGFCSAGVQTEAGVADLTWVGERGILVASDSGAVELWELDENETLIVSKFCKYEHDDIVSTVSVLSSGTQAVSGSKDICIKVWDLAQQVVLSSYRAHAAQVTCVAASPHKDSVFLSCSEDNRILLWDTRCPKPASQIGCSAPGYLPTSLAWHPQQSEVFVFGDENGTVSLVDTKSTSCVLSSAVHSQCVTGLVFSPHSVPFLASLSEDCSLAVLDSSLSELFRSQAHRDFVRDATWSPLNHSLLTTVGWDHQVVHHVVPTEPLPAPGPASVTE

Row | Structure (SMILES) | IC50 [µM]
1 | O=C1c2ccc(N3CCOCC3)cc2CCN1C[C@H](O)CN1CCc2ccccc2C1 [Example 4, 2-[(2R)-3-(3,4-dihydro-1H-isoquinolin-2-yl)-2-hydroxy-propyl]-6-morpholino-3,4-dihydroisoquinoline-1-one] | 0.001 to 0.1
2 | C[C@@H]1CN(c2ccc3c(c2)CCN(C[C@H](O)CN2CCc4ccccc4C2)C3=O)C[C@H](C)O1 [Example 14, 2-[(2R)-3-(3,4-dihydro-1H-isoquinolin-2-yl)-2-hydroxy-propyl]-6-[(2R,6S)-2,6-dimethylmorpholin-4-yl]-3,4-dihydroisoquinolin-1-one] | 0.1 to 1
3 | O=CN1CCN(c2ccc3c(c2)CCN(C[C@H](O)CN2CCc4ccccc4C2)C3=O)CC1 [Example 87, 4-[2-[(2R)-3-(3,4-dihydro-1H-isoquinolin-2-yl)-2-hydroxy-propyl]-1-oxo-3,4-dihydroisoquinolin-6-yl]piperazine-1-carbaldehyde] | 0.001 to 0.1
4 | CC1(C)CN(C[C@H](O)CN2CCc3ccccc3C2)C(=O)c2ccc(N3CCN(C=O)CC3)cc21 [Example 125, 4-[2-[(2R)-3-(3,4-dihydro-1H-isoquinolin-2-yl)-2-hydroxy-propyl]-4,4-dimethyl-1-oxo-3H-isoquinolin-6-yl]piperazine-1-carbaldehyde] | 0.1 to 1
5 | CN(C)C1CCN(c2ccc3c(c2)C(C)(C)CN(C[C@H](O)CN2CCc4ccccc4C2)C3=O)CC1 [Example 126, 2-[(2R)-3-(3,4-dihydro-1H-isoquinolin-2-yl)-2-hydroxy-propyl]-6-[4-(dimethylamino)-1-piperidyl]-4,4-dimethyl-3H-isoquinolin-1-one; dihydrochloride] | 0.001 to 0.1
6 | O=C1c2ccc(N3CCN(C4CCOC4)CC3)cc2CCN1C[C@H](O)CN1CCc2ccccc2C1 (stereo partly drawn) [Example 127, 2-[(2R)-3-(3,4-dihydro-1H-isoquinolin-2-yl)-2-hydroxy-propyl]-6-(4-tetrahydrofuran-3-ylpiperazin-1-yl)-3,4-dihydroisoquinolin-1-one] | 0.001 to 0.1
7 | CC(=O)N1CCN(c2cc(F)c3c(c2)CCN(C[C@H](O)CN2CCc4ccccc4C2)C3=O)CC1 [Example 128, 6-(4-acetylpiperazin-1-yl)-2-[(2R)-3-(3,4-dihydro-1H-isoquinolin-2-yl)-2-hydroxy-propyl]-8-fluoro-3,4-dihydroisoquinolin-1-one] | 0.1 to 1
8 | CC(=O)N1CCN(c2ccc3c(c2)CCN(C(C)C(O)CN2CCc4ccccc4C2)C3=O)CC1 (stereo not drawn) [Example 129, 6-(4-acetylpiperazin-1-yl)-2-[3-(3,4-dihydro-1H-isoquinolin-2-yl)-2-hydroxy-1-methyl-propyl]-3,4-dihydroisoquinolin-1-one] | 0.1 to 1
9 | CC1(C)CN(C[C@H](O)CN2CCc3ccccc3C2)C(=O)c2ccc(N3CCN(C=O)CC3)cc21 [Example 130, 4-[2-[(2R)-3-(3,4-dihydro-1H-isoquinolin-2-yl)-2-hydroxy-propyl]-4,4-dimethyl-1-oxo-3H-isoquinolin-6-yl]piperazine-1-carbaldehyde; hydrochloride] | 1 to 10
10 | CCN1CCC(Oc2ccc3c(c2)C(C)(C)CN(C[C@H](O)CN2CCc4ccccc4C2)C3=O)CC1 [Example 131, 2-[(2R)-3-(3,4-dihydro-1H-isoquinolin-2-yl)-2-hydroxy-propyl]-6-[(1-ethyl-4-piperidyl)oxy]-4,4-dimethyl-3H-isoquinolin-1-one] | 0.001 to 0.1
11 | O=C1c2ccc(N3CCOCC3)cc2C(F)(F)CN1C[C@H](O)CN1CCc2ccccc2C1 [Example 132, 2-[(2R)-3-(3,4-dihydro-1H-isoquinolin-2-yl)-2-hydroxy-propyl]-4,4-difluoro-6-morpholino-3H-isoquinolin-1-one] | 1 to 10
12 | CN1CCC(Oc2ccc3c(c2)CCN(C[C@H](O)CN2CCc4ccccc4C2)C3=O)C1 (stereo partly drawn) [Example 133, 2-[(2R)-3-(3,4-dihydro-1H-isoquinolin-2-yl)-2-hydroxy-propyl]-6-(1-methylpyrrolidin-3-yl)oxy-3,4-dihydroisoquinolin-1-one] | 0.001 to 0.1
13 | CCN1CCC(Oc2ccc3c(c2)CCN(C[C@H](O)CN2CCc4ccccc4C2)C3=O)C1 (stereo partly drawn) [Example 134, 2-[(2R)-3-(3,4-dihydro-1H-isoquinolin-2-yl)-2-hydroxy-propyl]-6-(1-ethylpyrrolidin-3-yl)oxy-3,4-dihydroisoquinolin-1-one] | 0.1 to 1
14 | CN1CCC(Oc2ccc3c(c2)CCN(C[C@H](O)CN2CCc4ccccc4C2)C3=O)CC1 [Example 135, 2-[(2R)-3-(3,4-dihydro-1H-isoquinolin-2-yl)-2-hydroxy-propyl]-6-[(1-methyl-4-piperidyl)oxy]-3,4-dihydroisoquinolin-1-one] | 0.1 to 1
15 | O=C1c2ccc(OC3CCN(C4COC4)CC3)cc2CCN1C[C@H](O)CN1CCc2ccccc2C1 [Example 136, 2-[(2R)-3-(3,4-dihydro-1H-isoquinolin-2-yl)-2-hydroxy-propyl]-6-[[1-(oxetan-3-yl)-4-piperidyl]oxy]-3,4-dihydroisoquinolin-1-one] | 0.001 to 0.1
16 | O=C1c2ccc(C#CCO)cc2CCN1C[C@H](O)CN1CCc2ccccc2C1 [Example 137, 2-[(2R)-3-(3,4-dihydro-1H-isoquinolin-2-yl)-2-hydroxypropyl]-6-(3-hydroxyprop-1-ynyl)-3,4-dihydroisoquinolin-1-one] | 0.1 to 1
17 | O=C1c2ccc(C#Cc3ccncc3)cc2CCN1C[C@H](O)CN1CCc2ccccc2C1 [Example 138, 2-[(2R)-3-(3,4-dihydro-1H-isoquinolin-2-yl)-2-hydroxypropyl]-6-[2-(4-pyridyl)ethynyl]-3,4-dihydroisoquinolin-1-one] | 0.1 to 1
18 | CN1CCCC(Oc2ccc3c(c2)CCN(C[C@H](O)CN2CCc4ccccc4C2)C3=O)C1 (stereo partly drawn) [Example 139, 2-[(2R)-3-(3,4-dihydro-1H-isoquinolin-2-yl)-2-hydroxypropyl]-6-[(1-methyl-3-piperidyl)oxy]-3,4-dihydroisoquinolin-1-one] | 0.001 to 0.1
19 | O=C1c2ccc(OC3CCCN(CCF)C3)cc2CCN1C[C@H](O)CN1CCc2ccccc2C1 (stereo partly drawn) [Example 140, 2-[(2R)-3-(3,4-dihydro-1H-isoquinolin-2-yl)-2-hydroxypropyl]-6-[[1-(2-fluoroethyl)-3-piperidyl]oxy]-3,4-dihydroisoquinolin-1-one] | 0.1 to 1
20 | CN(C)CC#Cc1ccc2c(c1)CCN(C[C@H](O)CN1CCc3ccccc3C1)C2=O [Example 141, 2-[(2R)-3-(3,4-dihydro-1H-isoquinolin-2-yl)-2-hydroxypropyl]-6-[3-(dimethylamino)prop-1-ynyl]-3,4-dihydroisoquinolin-1-one] | 0.1 to 1

What follows are compounds tested on SDMA levels in the tumor (assay: Test for in vivo target inhibitory activity (SDMA levels in U87MG tumor)). Conditions: U87MG tumor cells implanted subcutaneously in nude mice, oral 25 or 50 mg/kg 1-2 times daily for one week.
Description: Test for In Vivo Target Inhibitory Activity
After U87MG tumor cells were implanted subcutaneously in nude mice, a PRMT5 inhibitor was administered orally (25 or 50 mg/kg) 1-2 times daily for one week, and then the degree to which SDMA levels in the tumor decreased was measured.
Reagents: Bradford's solution (Catalog No. 500-0006) was purchased from Bio-rad (USA). SDMA antibody (Catalog No. 13222s) was purchased from Cell Signaling Technology (USA). SmD3 antibody (Catalog No. ap12451a) was purchased from Abgent (USA), and secondary antibody (Catalog No. ab6721) and TMB substrate (Catalog No. ab210902) were purchased from Abcam (UK).
Experimental procedure: The tumor tissues transplanted into the mice were excised, the cells were lysed, and then quantified with Bradford's solution. 5-10 μg of protein per sample was diluted with carbonate-bicarbonate buffer and dispensed into a 96-well plate and reacted at room temperature for 2 hours. After washing with phosphate buffered saline (PBST) containing 0.05% Tween-20 3 times, 200 μL of PBST containing 5% bovine serum albumin (BSA-PBST) was added and reacted at room temperature for 2 hours. After washing with PBST 3 times, the SDMA antibody and the SmD3 antibody were diluted in BSA-PBST, and 100 μL of each was dispensed onto the plate and reacted at 4° C. overnight. After washing with PBST 3 times the next day, 100 μL of the secondary antibody diluted in BSA-PBST was added and reacted at room temperature for 1 hour. After washing with PBST 3 times, 100 μL of TMB substrate was added and reacted at room temperature for 10-20 minutes, and 100 μL of 1N sulfuric acid solution was added to terminate the reaction. Then, the absorbance at 450 nm was measured to calculate the degree of SDMA inhibition by the compound. (+++: more than 70%, ++: more than 30% and 70% or less, +: 30% or less)

Row | Structure (SMILES) | SDMA inhibition
21 | O=C1c2ccc(N3CCOCC3)cc2CCN1C[C@H](O)CN1CCc2ccccc2C1 [Example 4, 2-[(2R)-3-(3,4-dihydro-1H-isoquinolin-2-yl)-2-hydroxy-propyl]-6-morpholino-3,4-dihydroisoquinoline-1-one] | ++ (++: more than 30% and 70% or less)
22 | C[C@@H]1CN(c2ccc3c(c2)CCN(C[C@H](O)CN2CCc4ccccc4C2)C3=O)C[C@H](C)O1 [Example 14, 2-[(2R)-3-(3,4-dihydro-1H-isoquinolin-2-yl)-2-hydroxy-propyl]-6-[(2R,6S)-2,6-dimethylmorpholin-4-yl]-3,4-dihydroisoquinolin-1-one] | +++ (+++: more than 70%)
23 | O=CN1CCN(c2ccc3c(c2)CCN(C[C@H](O)CN2CCc4ccccc4C2)C3=O)CC1 [Example 87, 4-[2-[(2R)-3-(3,4-dihydro-1H-isoquinolin-2-yl)-2-hydroxy-propyl]-1-oxo-3,4-dihydroisoquinolin-6-yl]piperazine-1-carbaldehyde] | ++ (++: more than 30% and 70% or less)
24 | CN1CCC(Oc2ccc3c(c2)CCN(C[C@H](O)CN2CCc4ccccc4C2)C3=O)CC1 [Example 135, 2-[(2R)-3-(3,4-dihydro-1H-isoquinolin-2-yl)-2-hydroxy-propyl]-6-[(1-methyl-4-piperidyl)oxy]-3,4-dihydroisoquinolin-1-one] | +++ (+++: more than 70%)
